Converted amounts (≈) assume the structure as drawn. Where two headings read alike, the source gives them in different places.
Legend:
Experiment in all cases: Minimal inhibitory concentration, agar dilution method
Type in all cases: cell-based
C. freundii IFO12681 = details: Citrobacter freundii, Trypticase soy agar, about 10^8 CFU/ml, 37° C., 18 hours
Method: (§1) The Minimal Inhibitory Concentrations of the tested compounds were determined according to the agar dilution method. Namely, 1.0 ml each of aqueous solution of the test compounds diluted by serial dilutions was poured into test petri dishes, subsequently 9.0 ml each of Trypticase soy agar was poured into the dishes and mixed.
(§2) On each of the mixed agar plates, one loopful of bacterial suspension (about 10^8 CFU/ml) of test microorganism was streaked.
(§3) After the incubation at 37° C. for 18 hours, the lowest concentration of the tested compounds in the medium which caused apparently complete inhibition of growth of the test microorganism was taken to be minimal inhibitory concentration.

E. cloacae IFO12937 = details: Enterobacter cloacae, Trypticase soy agar, about 10^8 CFU/ml, 37° C., 18 hours
Method: as §1, §2, §3

E. coli NIHJ JC-2 = details: Escherichia coli, NIHJJC2, Trypticase soy agar, about 10^8 CFU/ml, 37° C., 18 hours
Method: as §1, §2, §3

E. coli O-111 = details: Escherichia coli, O111, Trypticase soy agar, about 10^8 CFU/ml, 37° C., 18 hours
Method: as §1, §2, §3

E. coli T 7 = details: Escherichia coli, T7, Trypticase soy agar, about 10^8 CFU/ml, 37° C., 18 hours
Method: as §1, §2, §3

K. pneumoniae DT = details: Klebsiella pneumoniae, Trypticase soy agar, about 10^8 CFU/ml, 37° C., 18 hours
Method: as §1, §2, §3

M. morganii IFO3168 = details: Morganella morganii, Trypticase soy agar, about 10^8 CFU/ml, 37° C., 18 hours
Method: as §1, §2, §3

P. aeruginosa IFO3455 = details: Pseudomonas aeruginosa, Trypticase soy agar, about 10^8 CFU/ml, 37° C., 18 hours
Method: as §1, §2, §3

P. mirabilis IFO3849 = details: Proteus mirabilis, Trypticase soy agar, about 10^8 CFU/ml, 37° C., 18 hours
Method: as §1, §2, §3

P. vulgaris IFO3988 = details: Proteus vulgaris, Trypticase soy agar, about 10^8 CFU/ml, 37° C., 18 hours
Method: as §1, §2, §3

S. aureus 1840 = system: S. aureus 1840
Method: as §1, §2, §3

S. aureus 308 A-1 = details: Staphylococcus aureus, 308A1, Trypticase soy agar, about 10^8 CFU/ml, 37° C., 18 hours
Method: as §1, §2, §3

S. aureus FDA 209P = details: Staphylococcus aureus, FDA209P
Method: as §1, §2, §3

S. aureus J-108 = details: Staphylococcus aureus, J108, Trypticase soy agar, about 10^8 CFU/ml, 37° C., 18 hours
Method: as §1, §2, §3

S. aureus N-241 = details: Staphylococcus aureus, N241, Trypticase soy agar, about 10^8 CFU/ml, 37° C., 18 hours
Method: as §1, §2, §3

S. marcescens IFO12648 = details: Serratia marcescens, Trypticase soy agar, about 10^8 CFU/ml, 37° C., 18 hours
Method: as §1, §2, §3

[1] = Staphylococcus aureus, S. aureus 1840, Trypticase soy agar, about 10^8 CFU/ml, 37° C., 18 hours, read-out: MIC
[2] = S. aureus FDA 209P, Trypticase soy agar, about 10^8 CFU/ml, 37° C., 18 hours, read-out: MIC

SMILES | MIC (C. freundii IFO12681) [µg/mL] | MIC (E. cloacae IFO12937) [µg/mL] | MIC (E. coli NIHJ JC-2) [µg/mL] | MIC (E. coli O-111) [µg/mL] | MIC (E. coli T 7) [µg/mL] | MIC (K. pneumoniae DT) [µg/mL] | MIC (M. morganii IFO3168) [µg/mL] | MIC (P. aeruginosa IFO3455) [µg/mL] | MIC (P. mirabilis IFO3849) [µg/mL] | MIC (P. vulgaris IFO3988) [µg/mL] | MIC (S. aureus 1840; [1]) [µg/mL] | MIC (S. aureus 308 A-1) [µg/mL] | MIC (S. aureus FDA 209P; 18 h) [µg/mL] | MIC (S. aureus J-108) [µg/mL] | MIC (S. aureus N-241) [µg/mL] | MIC (S. marcescens IFO12648) [µg/mL] | MIC (S. aureus 1840; Staphylococcus aureus, 1840, 18 h) [µg/mL] | MIC (S. aureus FDA 209P; [2]) [µg/mL]
CO/N=C(\C(=O)N[C@@H]1C(=O)N2C(C(=O)O)=C(CSc3nnnn3CCCNC(=N)N)CS[C@H]12)c1csc(N)n1 [Example 8, 7β-[2-(2-Aminothiazol-4-yl)-(Z)-2-methoxyiminoacetamido]-3-[[1-(3-guanidinopropyl)-1H-tetrazol-5-yl]thiomethyl]-3-cephem-4-carboxylic acid] | ≤ 0.1 | 0.39 (≈ 0.654 µM) | ≤ 0.1 | ≤ 0.1 | 0.39 (≈ 0.654 µM) | ≤ 0.1 | ≤ 0.1 | 6.25 (≈ 10.5 µM) | 0.39 (≈ 0.654 µM) | ≤ 0.1 | 0.78 (≈ 1.31 µM) | 0.78 (≈ 1.31 µM) | 0.78 (≈ 1.31 µM) | 6.25 (≈ 10.5 µM) | 12.5 (≈ 20.9 µM) | ≤ 0.1 |  | 
CO/N=C(\C(=O)N[C@@H]1C(=O)N2C(C(=O)O)=C(CSc3snc(SCC(=N)N)c3C#N)CS[C@H]12)c1csc(N)n1 [Example 15, 3-[(3-Amidinomethylthio-4-cyanoisothiazol-5-yl)thiomethyl]-7β-[2-(2-aminothiazol-4-yl)-(Z)-2-methoxyiminoacetamido]-3-cephem-4-carboxylic acid] | 0.2 (≈ 0.32 µM) | 0.78 (≈ 1.25 µM) | 0.39 (≈ 0.623 µM) | ≤ 0.1 | 0.39 (≈ 0.623 µM) | 0.2 (≈ 0.32 µM) | 0.2 (≈ 0.32 µM) | 6.25 (≈ 9.99 µM) | 0.78 (≈ 1.25 µM) | 0.2 (≈ 0.32 µM) |  | 0.2 (≈ 0.32 µM) |  | 6.25 (≈ 9.99 µM) | 6.25 (≈ 9.99 µM) | 0.39 (≈ 0.623 µM) | 0.39 (≈ 0.623 µM) | 0.2 (≈ 0.32 µM)
N=C(N)CSc1nnc(SCC2=C(C(=O)O)N3C(=O)[C@@H](NC(=O)/C(=N\O)c4csc(N)n4)[C@H]3SC2)s1 [Example 39, 3-[(2-Amidinomethylthio-1,3,4-thiadiazol-5-yl)thiomethyl]-7β-[2-(2-aminothiazol-4-yl)-(Z)-2-hydroxyiminoacetamido]-3-cephem-4-carboxylic acid] | 0.39 (≈ 0.664 µM) | 3.13 (≈ 5.33 µM) | 0.39 (≈ 0.664 µM) | ≤ 0.1 | 1.56 (≈ 2.65 µM) | ≤ 0.1 | 0.39 (≈ 0.664 µM) | 12.5 (≈ 21.3 µM) | 1.56 (≈ 2.65 µM) | 0.78 (≈ 1.33 µM) | 0.39 (≈ 0.664 µM) | 0.2 (≈ 0.34 µM) |  | 1.56 (≈ 2.65 µM) | 1.56 (≈ 2.65 µM) | 0.78 (≈ 1.33 µM) |  | 0.2 (≈ 0.34 µM)
N#Cc1c(SCC(=N)N)nsc1SCC1=C(C(=O)O)N2C(=O)[C@@H](NC(=O)/C(=N\O)c3csc(N)n3)[C@H]2SC1 [Example 42, 3-[(3-Amidinomethylthio-4-cyanoisothiazol-5-yl)thiomethyl]-7β-[2-(2-aminothiazol-4-yl)-(Z)-2-hydroxyiminoacetamido]-3-cephem-4-carboxylic acid] | 0.78 (≈ 1.28 µM) | 3.13 (≈ 5.12 µM) | 0.78 (≈ 1.28 µM) | ≤ 0.1 | 1.56 (≈ 2.55 µM) | 0.78 (≈ 1.28 µM) | 0.78 (≈ 1.28 µM) | 12.5 (≈ 20.4 µM) | 3.13 (≈ 5.12 µM) | 0.78 (≈ 1.28 µM) | 0.2 (≈ 0.327 µM) | ≤ 0.1 |  | 0.78 (≈ 1.28 µM) | 0.78 (≈ 1.28 µM) | 1.56 (≈ 2.55 µM) |  | ≤ 0.1
N=C(N)CSCCn1nnnc1SCC1=C(C(=O)O)N2C(=O)[C@@H](NC(=O)/C(=N\O)c3csc(N)n3)[C@H]2SC1 [Example 44] | 0.39 (≈ 0.65 µM) | 3.13 (≈ 5.22 µM) | 0.2 (≈ 0.333 µM) | ≤ 0.1 | 0.78 (≈ 1.3 µM) | 0.2 (≈ 0.333 µM) | 0.39 (≈ 0.65 µM) | 12.5 (≈ 20.8 µM) | 3.13 (≈ 5.22 µM) | 0.39 (≈ 0.65 µM) | 0.2 (≈ 0.333 µM) | ≤ 0.1 |  | 3.13 (≈ 5.22 µM) | 3.13 (≈ 5.22 µM) | 0.39 (≈ 0.65 µM) |  | ≤ 0.1
